{"source": "patent US20200138829A1", "about": "“METHODS OF CANCER TREATMENT” (Ferro Therapeutics, Inc., priority 2017, published 2020)", "key": {"[1]": {"test_system": "A549 cells", "experiment": "Combination proliferation assay with PKC activator, A549", "assay_type": "cell-based", "details": "inducer at concentration with minimal or no effect alone", "experimental": "(§1) Cell viability assay was performed to assess the potency of the ferroptosis inducer compounds in various cancer cell lines with K-Ras mutations. Cells at a density of 1,000-10,000 cells/well were seeded in 96-well plates and incubated at 37° C. overnight. A series of 9 different concentrations of compound stocks (500×) were created by 3-fold serial dilution in DMSO. These compounds were further diluted in culture media and then added to cells so that the final DMSO concentration was equal to 0.25% or less. After 96 hours of incubation, 50 μL of CellTiter Glo reagent (Promega) was added to each well and luminescence was measured after 10 minutes using EnVision (PerkinElmer). K101A (a PKC activator) was used as the reference compound titrated from top concentration of 30 μM. All compounds were tested initially from 30 μM as the top concentration in duplicates (range of 4.6 nM-30 μM). […] Data was analyzed using XL-fit software (ID Business Solutions Ltd.). IC50, relative IC50, or % of top inhibition was calculated.\n(§2) Therefore, whether PKC activators synergize or antagonize with ferroptosis inducers can be tested empirically."}, "[2]": {"test_system": "KP-4 cells", "experiment": "Combination proliferation assay with PKC activator, KP-4", "assay_type": "cell-based", "experimental": "as §1, §2"}, "[3]": {"test_system": "Panc1 cells", "experiment": "Combination proliferation assay with PKC activator, Panc1", "assay_type": "cell-based", "details": "inducer up to 1 μM", "experimental": "as §1, §2"}, "[4]": {"test_system": "Namalwa cell line", "experiment": "Combination proliferation assay with PKC activator, Namalwa", "assay_type": "cell-based", "experimental": "as §1, §2\n(§3) Therefore, it is of interest to test combination treatment of both classes of compounds in lymphoma cells."}, "[5]": {"test_system": "Capan-1 cells", "experiment": "Combination proliferation assay with PKC activator, Capan-1", "assay_type": "cell-based", "experimental": "as §1, §2"}, "[6]": {"test_system": "Mino cell line", "experiment": "Combination proliferation assay with PKC activator, Mino", "assay_type": "cell-based", "experimental": "as §1, §2, §3"}, "[7]": {"test_system": "Panc2.13 cells", "experiment": "Combination proliferation assay with PKC activator, Panc2.13", "assay_type": "cell-based", "experimental": "as §1, §2"}, "[8]": {"test_system": "A549 lung cancer cell line", "experiment": "Cell viability assay (CellTiter Glo), A549", "assay_type": "cell-based", "details": "A549", "experimental": "(§4) Cell viability assay was performed to assess the potency of the ferroptosis inducer compounds in various cancer cell lines with K-Ras mutations. […] A series of 9 different concentrations of compound stocks (500×) were created by 3-fold serial dilution in DMSO. […] After 96 hours of incubation, 50 μL of CellTiter Glo reagent (Promega) was added to each well and luminescence was measured after 10 minutes using EnVision (PerkinElmer). […] […] IC50, relative IC50, or % of top inhibition was calculated."}, "[9]": {"test_system": "KP-4 pancreatic cancer cell line", "experiment": "Cell viability assay (CellTiter Glo), KP-4", "assay_type": "cell-based", "details": "KP-4 versus A549", "experimental": "as §4"}, "[10]": {"test_system": "KP-4 cells", "experiment": "Effect of ferroptosis or apoptosis inhibitor on RSL3- or Erastin-induced cell death, KP-4", "details": "KP-4", "experimental": "as §1\nFerroptosis inhibitors include: Ferrostatin-1 and Liproxstatin-1, inhibitors of ROS accumulation; Deferoxamine, an iron chelator; and PD146176, a 15-lipoxygenase inhibitor (see, e.g., Hofman et al., 2016, J Med Chem. March 10; 59(5):2041-53; Yang et al., 2016 Cell 26(3):165-176). The apoptosis inhibitor chosen was ZVAD (see, e.g. Wu et al., 2011, Cell Death and Differentiation 18:26-37). Ferroptosis inhibitors and ZVAD were first titrated as a single agent as shown in Example 1."}, "[11]": {"test_system": "A549, MiaPaCa-2, and KP-4", "experiment": "Cell viability assay, comparison across A549, MiaPaCa-2 and KP-4", "assay_type": "cell-based", "details": "single agent", "experimental": "as §1"}}, "note": "Structures can show the parent of a compound that is named as a salt."}
{"smiles": "CC[P](CC)(CC)=[Au][S]C1OC(COC(C)=O)C(OC(C)=O)C(CC(C)=O)C1OC(C)=O", "note": "(stereo not shown)", "values": [{"measurement": "synergy with K101A or K102 to block proliferation", "setting": "[1]", "value": "No synergy"}, {"measurement": "synergy when combined with K101A or K102", "setting": "[2]", "value": "no synergy"}, {"measurement": "synergy with K101A or K102 to block proliferation", "setting": "[3]", "value": "No synergistic effects"}, {"measurement": "synergy when combined with K101A or K102", "setting": "[4]", "value": "minor synergy"}, {"measurement": "synergy with K101A or K102 to block proliferation", "setting": "[5]", "value": "did not synergize"}, {"measurement": "synergy when combined with K101A or K102", "setting": "[6]", "value": "moderate synergy"}, {"measurement": "synergy with K101A or K102 to block proliferation", "setting": "[7]", "value": "did not synergize"}]}
{"smiles": "C=CCNc1nc(NCC=C)nc(N2CCN(C(c3ccc(F)cc3)c3ccc(F)cc3)CC2)n1", "note": "[Almitrine]", "values": [{"measurement": "potency of inhibition of A549 cells (in words)", "setting": "[8]", "value": "very weak inhibitors"}]}
{"smiles": "CN(C)c1nc(N(C)C)nc(N(C)C)n1", "note": "[Altretamine]", "values": [{"measurement": "potency of inhibition of A549 cells (in words)", "setting": "[8]", "value": "very weak inhibitors"}]}
{"smiles": "CO[C@H]1O[C@@H]2O[C@@]3(C)CC[C@H]4[C@H](C)CC[C@@H]([C@H]1C)[C@@]24OO3", "note": "[Artemether]", "values": [{"measurement": "selectivity for KP-4 over A549", "setting": "[9]", "value": "> 5", "unit": "fold"}]}
{"smiles": "C[C@H]1[C@H](OC(=O)CCC(=O)O)O[C@@H]2O[C@@]3(C)CC[C@H]4[C@H](C)CC[C@@H]1[C@@]24OO3", "note": "[Artesunate]", "values": [{"measurement": "synergy when combined with K101A or K102", "setting": "[2]", "value": "moderate/minor synergy"}]}
{"smiles": "CC(=O)N(O)CCCCCNC(=O)CCC(=O)N(O)CCCCCNC(=O)CCC(=O)N(O)CCCCCN", "note": "[Deferoxamine mesylate]", "values": [{"measurement": "effect on RSL3- or Erastin-induced cell death", "setting": "[10]; Deferoxamine", "value": "did not rescue"}, {"measurement": "differential activity among three cell lines", "setting": "[11]", "value": "do not show differential activity"}, {"measurement": "potency in blocking cell proliferation (in words)", "setting": "[11]", "value": "not potent"}]}
{"smiles": "CCOC(=O)c1ccc(NC2CCCCC2)c(N)c1", "note": "[Ferrostatin-1]", "values": [{"measurement": "effect on cell death induced by RSL3 or Erastin", "setting": "[10]; co-treatment, Ferrostatin-1 at 3 μM", "value": "completely abrogated cell death"}, {"measurement": "differential activity among three cell lines", "setting": "[11]", "value": "do not show differential activity"}, {"measurement": "potency in blocking cell proliferation (in words)", "setting": "[11]", "value": "not potent"}]}
{"smiles": "CC(=O)O[C@@]12C[C@@H](C)[C@@]3(O)[C@@H](C=C(CO)C[C@]4(O)C(=O)C(C)=C[C@@H]34)[C@@H]1C2(C)C", "note": "[K101A, 12-deoxyphorbol 13-acetate]", "values": [{"measurement": "% of top inhibition by K101A or K102 without ferroptosis inducer", "setting": "[7]", "value": "~60", "unit": "%"}]}
{"smiles": "C/C=C(/C)C(=O)O[C@H]1C(C)=C[C@]23C(=O)[C@@H](C=C(CO)[C@@H](O)[C@]12O)[C@H]1[C@@H](C[C@H]3C)C1(C)C", "note": "[K102, ingenol-3-angelate]", "values": [{"measurement": "% of top inhibition by K101A or K102 without ferroptosis inducer", "setting": "[7]", "value": "~60", "unit": "%"}]}
